Test results taken from patent US12091386B2, “D-amphetamine compounds, compositions, and processes for making and using the same” (Zevra Therapeutics, Inc., priority 2018, dated 2024).

Test: Intravenous pharmacokinetic study in rats (tail vein injection)
Assay type: in vivo, rat
Conditions: FIG. 10, versus isonicotinate analogue

Structure (SMILES): CCOC(=O)c1ccc[n+](COC(=O)N[C@@H](C)Cc2ccccc2)c1 [AMP-CO2CH2-nicotinate(Et), d-amphetamine-CO2CH2-nicotinate ethyl ester]
- exposure to d-amphetamine after intravenous administration compared to AMP-CO2CH2-isonicotinate(Et): decreases exposure to d-amphetamine
